System: Staphylococcus aureus (ATCC 6538)
Assay: Minimum concentration for total antimicrobial activity, AOAC method 955.15 (Phenol Coefficient Method) with minor modifications
Format: cell-based

Row | SMILES | antimicrobial activity (in words) | Minimal Concentration (minimum concentration for total antimicrobial activity, incorporated into composition F, contact time 10 minutes, turbidity after 72 hours at 37° C.)
1 | Cc1ccc(C(C)C)c(O)c1 [Thymol] | excellent antimicrobial activity | –
2 | Cc1ccc(C(C)C)cc1O [Carvacrol] | excellent antimicrobial activity | 0.07 v/v %

Reference: patent publication US9451763B2, “Disinfectant formulation” (Laboratoire M2, priority 2008, dated 2016)
